PubChem BioAssay AID248 (DTP/NCI, 2004)
“And” between values parts separate entries of the source, which are not always exact repeats. Identical values can stand only once. Toxic doses and inconclusive results are not listed. Rule as the data show it: active = T/C of 150% or more; inactive = T/C below 125%.

Tested on: L1210 leukemia ip in BDF1 mice, survival T/C
Test: NCI In Vivo Anticancer Drug Screen. Data for tumor model L1210 Leukemia (intraperitoneal) in B6D2F1 (BDF1) mice
Conditions: higher = longer survival
Summary of the method: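 Antitumor effect is assessed in tumor-bearing animals. Survival in the compound arm is compared with a vehicle-dosed control arm and expressed as their quotient.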

[1] = endpoint: mean survival time, dose: 100.0 mg/kg/injection, schedule: Q01DX009 (ip), vehicle: Klucel (hydroxypropylcellulose) (HPC)
[2] = endpoint: mean survival time, dose: 100.0 mg/kg/injection, schedule: Q04DX002 (ip), vehicle: Klucel (hydroxypropylcellulose) (HPC)
[3] = endpoint: mean survival time, dose: 100.0 mg/kg/injection, schedule: Q04DX003 (ip), vehicle: Klucel (hydroxypropylcellulose) (HPC)
[4] = endpoint: mean survival time, dose: 200.0 mg/kg/injection, schedule: Q01DX009 (ip), vehicle: Klucel (hydroxypropylcellulose) (HPC)
[5] = endpoint: mean survival time, dose: 200.0 mg/kg/injection, schedule: Q04DX002 (ip), vehicle: Klucel (hydroxypropylcellulose) (HPC)
[6] = endpoint: mean survival time, dose: 200.0 mg/kg/injection, schedule: Q04DX003 (ip), vehicle: Klucel (hydroxypropylcellulose) (HPC)
[7] = endpoint: mean survival time, dose: 400.0 mg/kg/injection, schedule: Q01DX009 (ip), vehicle: Klucel (hydroxypropylcellulose) (HPC)
[8] = endpoint: mean survival time, dose: 400.0 mg/kg/injection, schedule: Q04DX002 (ip), vehicle: Klucel (hydroxypropylcellulose) (HPC)
[9] = endpoint: mean survival time, dose: 400.0 mg/kg/injection, schedule: Q04DX003 (ip), vehicle: Klucel (hydroxypropylcellulose) (HPC)
[10] = endpoint: mean survival time, dose: 100.0 mg/kg/injection, schedule: Q01DX009 (ip), vehicle: saline with Tween-80
[11] = endpoint: mean survival time, dose: 100.0 mg/kg/injection, schedule: Q04DX003 (ip), vehicle: saline with Tween-80
[12] = endpoint: mean survival time, dose: 200.0 mg/kg/injection, schedule: Q01DX009 (ip), vehicle: saline with Tween-80
[13] = endpoint: mean survival time, dose: 200.0 mg/kg/injection, schedule: Q04DX003 (ip), vehicle: saline with Tween-80
[14] = endpoint: mean survival time, dose: 400.0 mg/kg/injection, schedule: Q01DX009 (ip), vehicle: saline with Tween-80
[15] = endpoint: mean survival time, dose: 400.0 mg/kg/injection, schedule: Q04DX003 (ip), vehicle: saline with Tween-80

Measured: T/C

COc1cccc2c1C(=O)c1c(O)c3c(c(O)c1C2=O)C[C@@](O)(C(C)=O)C[C@@H]3OC1CC(NC(C)=O)C(O)C(C)O1 (stereo partly drawn)
inactive: endpoint: mean survival time, dose: 0.63 mg/kg/injection, schedule: Q01DX001 (ip), vehicle: other 101 % of control | endpoint: mean survival time, dose: 1.25 mg/kg/injection, schedule: Q01DX001 (ip), vehicle: other 103 % of control | endpoint: mean survival time, dose: 1.9 mg/kg/injection, schedule: Q01DX009 (ip), vehicle: saline 103 % of control | endpoint: mean survival time, dose: 2.5 mg/kg/injection, schedule: Q01DX001 (ip), vehicle: other 107 % of control | endpoint: mean survival time, dose: 3.8 mg/kg/injection, schedule: Q01DX009 (ip), vehicle: saline 103 % of control | endpoint: mean survival time, dose: 5.0 mg/kg/injection, schedule: Q01DX001 (ip), vehicle: other 106 % of control | endpoint: mean survival time, dose: 7.5 mg/kg/injection, schedule: Q01DX009 (ip), vehicle: saline 111 % of control | endpoint: mean survival time, dose: 10.0 mg/kg/injection, schedule: Q01DX001 (ip), vehicle: other 111 % of control | endpoint: mean survival time, dose: 10.0 mg/kg/injection, schedule: Q01DX001 (ip), vehicle: saline 114 % of control | endpoint: mean survival time, dose: 20.0 mg/kg/injection, schedule: Q01DX001 (ip), vehicle: other 123 % of control | endpoint: mean survival time, dose: 20.0 mg/kg/injection, schedule: Q01DX001 (ip), vehicle: saline 111 % of control | endpoint: mean survival time, dose: 40.0 mg/kg/injection, schedule: Q01DX001 (ip), vehicle: other 122 % of control | endpoint: mean survival time, dose: 40.0 mg/kg/injection, schedule: Q01DX001 (ip), vehicle: saline 124 % of control | endpoint: mean survival time, dose: 160.0 mg/kg/injection, schedule: Q01DX001 (ip), vehicle: saline 122 % of control | endpoint: mean survival time, dose: 320.0 mg/kg/injection, schedule: Q01DX001 (ip), vehicle: saline 113 % of control | endpoint: median survival time, dose: 75.0 mg/kg/injection, schedule: Q01DX001 (ip), vehicle: propolene glycol 122 % of control and 124 % of control | endpoint: median survival time, dose: 400.0 mg/kg/injection, schedule: Q01DX001 (ip), vehicle: propolene glycol 98 % of control and 88 % of control

O=C(/C=C/c1ccccc1)NC(=S)NCc1ccco1
inactive: [1] 94 % of control and 95 % of control | [2] 97 % of control | [3] 95 % of control | [4] 92 % of control and 98 % of control | [5] 101 % of control and 114 % of control | [6] 95 % of control | [7] 94 % of control and 95 % of control | [8] 95 % of control and 102 % of control | [9] 94 % of control

CCCCCCCC/C=C\CCCCCCCC(=O)OCCCCCCCCCCCCCCCC
inactive: [1] 104 % of control | [4] 96 % of control | [7] 93 % of control

NC(=O)CN1C(=O)c2ccccc2C1=O
inactive: [10] 97 % of control | [11] 97 % of control | [12] 89 % of control | [13] 97 % of control | [14] 91 % of control | [15] 97 % of control

N=c1ccc2ccccc2n1O
inactive: endpoint: mean survival time, dose: 6.25 mg/kg/injection, schedule: Q04DX003 (ip), vehicle: other 97 % of control | endpoint: mean survival time, dose: 12.5 mg/kg/injection, schedule: Q04DX003 (ip), vehicle: other 95 % of control | endpoint: mean survival time, dose: 25.0 mg/kg/injection, schedule: Q04DX003 (ip), vehicle: other 100 % of control

CCCCCCCCCCCCCCCC(=O)Nc1ccc(O)cc1
inactive: endpoint: mean survival time, dose: 100.0 mg/kg/injection, schedule: Q01DX001 (ip), vehicle: saline 110 % of control | [3] 97 % of control | endpoint: mean survival time, dose: 200.0 mg/kg/injection, schedule: Q01DX001 (ip), vehicle: saline 110 % of control | [6] 102 % of control | endpoint: mean survival time, dose: 400.0 mg/kg/injection, schedule: Q01DX001 (ip), vehicle: saline 108 % of control | [9] 95 % of control

CC1(c2cccnc2)OCCO1
inactive: endpoint: mean survival time, dose: 75.0 mg/kg/injection, schedule: Q01DX001 (ip), vehicle: saline 97 % of control | endpoint: mean survival time, dose: 150.0 mg/kg/injection, schedule: Q01DX001 (ip), vehicle: saline 98 % of control | endpoint: mean survival time, dose: 300.0 mg/kg/injection, schedule: Q01DX001 (ip), vehicle: saline 95 % of control

CCOC(=O)N(CCN1C(=O)c2ccccc2C1=O)c1cc(OC)ccc1OC
inactive: [2] 100 % of control | [5] 93 % of control | [8] 89 % of control

CCSCC1OC(n2cnc3c(N)nc(F)nc32)C(O)C1O (stereo not drawn)
inactive: endpoint: mean survival time, dose: 25.0 mg/kg/injection, schedule: Q01DX001 (ip), vehicle: Klucel (hydroxypropylcellulose) (HPC) 98 % of control | endpoint: mean survival time, dose: 25.0 mg/kg/injection, schedule: Q01DX009 (ip), vehicle: Klucel (hydroxypropylcellulose) (HPC) 98 % of control | endpoint: mean survival time, dose: 25.0 mg/kg/injection, schedule: Q04DX003 (ip), vehicle: Klucel (hydroxypropylcellulose) (HPC) 97 % of control | endpoint: mean survival time, dose: 50.0 mg/kg/injection, schedule: Q01DX001 (ip), vehicle: Klucel (hydroxypropylcellulose) (HPC) 104 % of control | endpoint: mean survival time, dose: 50.0 mg/kg/injection, schedule: Q01DX009 (ip), vehicle: Klucel (hydroxypropylcellulose) (HPC) 96 % of control | endpoint: mean survival time, dose: 50.0 mg/kg/injection, schedule: Q04DX003 (ip), vehicle: Klucel (hydroxypropylcellulose) (HPC) 103 % of control | endpoint: mean survival time, dose: 100.0 mg/kg/injection, schedule: Q01DX001 (ip), vehicle: Klucel (hydroxypropylcellulose) (HPC) 97 % of control and 102 % of control | [3] 92 % of control | endpoint: mean survival time, dose: 200.0 mg/kg/injection, schedule: Q01DX001 (ip), vehicle: Klucel (hydroxypropylcellulose) (HPC) 86 % of control

CC(=O)Nc1cc2c(cc1[N+](=O)[O-])-c1ccc(F)cc1C2=O
inactive: endpoint: mean survival time, dose: 100.0 mg/kg/injection, schedule: Q01DX001 (ip), vehicle: carboxymethylcellulose (CMC) 100 % of control | endpoint: mean survival time, dose: 200.0 mg/kg/injection, schedule: Q01DX001 (ip), vehicle: carboxymethylcellulose (CMC) 96 % of control | endpoint: mean survival time, dose: 400.0 mg/kg/injection, schedule: Q01DX001 (ip), vehicle: carboxymethylcellulose (CMC) 99 % of control

CC1=CC(=O)C(Sc2ccc(C)cc2)=CC1=O
inactive: endpoint: mean survival time, dose: 75.0 mg/kg/injection, schedule: Q01DX001 (ip), vehicle: other 98 % of control | endpoint: mean survival time, dose: 150.0 mg/kg/injection, schedule: Q01DX001 (ip), vehicle: other 93 % of control

COn1c(=O)c2ccccc2n(C)c1=O
inactive: endpoint: mean survival time, dose: 62.5 mg/kg/injection, schedule: Q01DX009 (ip), vehicle: other 96 % of control | endpoint: mean survival time, dose: 125.0 mg/kg/injection, schedule: Q01DX009 (ip), vehicle: other 94 % of control | endpoint: mean survival time, dose: 250.0 mg/kg/injection, schedule: Q01DX009 (ip), vehicle: other 98 % of control

CCN(CC)CCN(C)C(=O)C1C(c2ccccc2)C1c1ccccc1 (stereo not drawn)
inactive: endpoint: mean survival time, dose: 25.0 mg/kg/injection, schedule: Q04DX002 (ip), vehicle: Klucel (hydroxypropylcellulose) (HPC) 93 % of control | endpoint: mean survival time, dose: 50.0 mg/kg/injection, schedule: Q04DX002 (ip), vehicle: Klucel (hydroxypropylcellulose) (HPC) 105 % of control

CCOC(=O)c1ccc(OC(=O)Nc2ccccc2)cc1
inactive: [10] 98 % of control | [11] 98 % of control | [12] 96 % of control | [13] 95 % of control | [14] 90 % of control | [15] 91 % of control

COC(=O)c1cc(I)cc(I)c1N
inactive: endpoint: mean survival time, dose: 100.0 mg/kg/injection, schedule: Q01DX001 (ip), vehicle: saline with Tween-80 98 % of control | endpoint: mean survival time, dose: 200.0 mg/kg/injection, schedule: Q01DX001 (ip), vehicle: saline with Tween-80 98 % of control | endpoint: mean survival time, dose: 400.0 mg/kg/injection, schedule: Q01DX001 (ip), vehicle: saline with Tween-80 100 % of control
